For one data set, the target named is T1, recombinant human TDP2 (Homo sapiens, UniProt O95551).
T1 sequence (O95551 1-362): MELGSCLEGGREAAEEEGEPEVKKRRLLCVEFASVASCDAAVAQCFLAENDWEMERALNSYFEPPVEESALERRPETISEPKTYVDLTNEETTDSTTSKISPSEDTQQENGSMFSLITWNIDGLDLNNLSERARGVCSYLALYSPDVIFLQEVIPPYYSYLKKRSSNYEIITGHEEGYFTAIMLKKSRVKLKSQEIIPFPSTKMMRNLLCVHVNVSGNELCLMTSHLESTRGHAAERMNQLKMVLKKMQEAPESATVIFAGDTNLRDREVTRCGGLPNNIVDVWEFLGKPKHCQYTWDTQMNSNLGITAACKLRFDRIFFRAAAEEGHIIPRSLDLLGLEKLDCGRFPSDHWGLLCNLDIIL
Nature of the data set: Recombinant Tdp2 assay. The format is biochemical. Particulars: semiquantitative scale, in duplicate; Table 1; read-out: Enzyme Inhibitory Activity Tdp2.

The subject of the next data set is MCF-7. As to the kind of experiment: NCI-60 cytotoxicity, MCF-7. Particulars: Homo sapiens, MCF7, read-out: Cytotoxicity (GI50) Breast MCF-7.
Another data set concerns UACC-62. As to the kind of experiment: NCI-60 cytotoxicity, UACC-62. Particulars: Homo sapiens, UACC-62, read-out: Cytotoxicity (GI50) Melanoma UACC-62.
For data set [1], the system named is NCI-60 panel of human cancer cell lines. Nature of the data set: NCI-60 screen, mean graph midpoint over all cell lines. Particulars: Homo sapiens.
The subject of another data set is OVCAR-3. Nature of the data set: NCI-60 cytotoxicity, OVCAR-3. Particulars: Homo sapiens, OVCAR-3, read-out: Cytotoxicity (GI50) Ovarian Ovcar-3.
Another data set relates to SF-539. As to the kind of experiment: NCI-60 cytotoxicity, SF-539. Particulars: Homo sapiens, SF-539, read-out: Cytotoxicity (GI50) CNS SF-539.
In the next data set the test system is HOP-62. As to the kind of experiment: NCI-60 cytotoxicity, HOP-62. Particulars: Homo sapiens, HOP-62, read-out: Cytotoxicity (GI50) Lung HOP-62.
A further data set has as its system SN12C. Nature of the data set: NCI-60 cytotoxicity, SN12C. Particulars: Homo sapiens, read-out: Cytotoxicity (GI50) Renal SN12C.
The target in a further data set is Tdp1 (Homo sapiens, UniProt Q9NUW8). As to the kind of experiment: Recombinant Tdp1 assay. The format is biochemical. Particulars: semiquantitative scale, in duplicate; Table 1; read-out: Enzyme Inhibitory Activity Tdp1.
Tdp1, sequence (Q9NUW8 whole entry): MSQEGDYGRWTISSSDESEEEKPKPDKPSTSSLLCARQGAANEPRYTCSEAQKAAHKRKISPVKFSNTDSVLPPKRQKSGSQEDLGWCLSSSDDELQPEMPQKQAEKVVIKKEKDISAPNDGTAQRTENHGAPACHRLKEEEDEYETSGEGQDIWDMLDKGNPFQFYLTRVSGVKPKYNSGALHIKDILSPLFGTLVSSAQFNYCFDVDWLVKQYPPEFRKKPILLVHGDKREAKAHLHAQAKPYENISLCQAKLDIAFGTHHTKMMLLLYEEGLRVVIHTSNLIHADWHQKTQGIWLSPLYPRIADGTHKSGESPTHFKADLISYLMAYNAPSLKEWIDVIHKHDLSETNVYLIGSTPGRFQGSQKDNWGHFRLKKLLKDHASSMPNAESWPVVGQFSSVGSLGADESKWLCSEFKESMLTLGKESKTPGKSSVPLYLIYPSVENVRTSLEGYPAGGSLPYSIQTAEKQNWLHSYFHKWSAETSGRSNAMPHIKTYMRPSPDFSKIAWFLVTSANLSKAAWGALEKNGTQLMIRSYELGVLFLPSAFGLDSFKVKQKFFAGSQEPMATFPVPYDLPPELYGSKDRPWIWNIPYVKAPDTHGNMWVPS
The target of the next data set is T2, Top1 (Homo sapiens, UniProt P11387).
T2 sequence (P11387 1-765): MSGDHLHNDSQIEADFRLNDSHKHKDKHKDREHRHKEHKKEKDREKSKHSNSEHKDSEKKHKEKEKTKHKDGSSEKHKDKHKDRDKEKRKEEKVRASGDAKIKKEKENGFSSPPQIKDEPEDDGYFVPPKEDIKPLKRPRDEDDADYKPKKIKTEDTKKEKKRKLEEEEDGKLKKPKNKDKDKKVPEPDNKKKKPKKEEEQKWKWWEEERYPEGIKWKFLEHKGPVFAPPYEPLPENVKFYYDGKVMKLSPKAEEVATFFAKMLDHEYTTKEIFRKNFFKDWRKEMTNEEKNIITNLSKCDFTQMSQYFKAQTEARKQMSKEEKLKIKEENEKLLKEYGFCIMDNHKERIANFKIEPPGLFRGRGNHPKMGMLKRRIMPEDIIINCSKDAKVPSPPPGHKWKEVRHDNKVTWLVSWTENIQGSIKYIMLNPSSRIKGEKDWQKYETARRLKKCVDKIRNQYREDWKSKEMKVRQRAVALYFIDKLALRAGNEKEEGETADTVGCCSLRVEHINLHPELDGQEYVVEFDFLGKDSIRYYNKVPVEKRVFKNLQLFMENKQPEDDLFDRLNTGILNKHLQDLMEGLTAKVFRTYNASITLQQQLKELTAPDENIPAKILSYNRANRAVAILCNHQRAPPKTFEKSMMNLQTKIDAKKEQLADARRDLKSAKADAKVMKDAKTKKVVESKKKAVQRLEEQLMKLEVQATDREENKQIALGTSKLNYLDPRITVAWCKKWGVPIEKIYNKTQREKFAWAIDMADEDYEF
Nature of the data set: Top1-mediated DNA cleavage assay. The format is biochemical. Also noted: Top1 inhibitory activity level / Top1 inhibitory activity score: key to the marks not given beside the values. Particulars: for Enzyme Inhibitory Activity Top1: DNA cleavage relative to 1 μM MJ-III-65 (19) and 1 μM camptothecin (18), Table 1; for Top1 inhibitory activity level: series 1.

[2] abbreviates: read-out: Cytotoxicity (GI50) MGM.

These results are taken from US10875860B2, “Azaindenoisoquinoline compounds and uses thereof” (Purdue Research Foundation, priority 2016, dated 2020).

Read-outs that look alike come from different tables or passages of the source. Bounds are passed on as bounds.

Experimental for recombinant human TDP2: TDP2 reactions were carried out as described previously with the following modifications. […] Reactions were terminated and treated similarly to whole-cell extract and recombinant Tdp1 reactions (see previous paragraph).

For orientation: GI50 means the concentration at which growth is held to half of that of the control. Broadly, the melting point is the temperature of the solid-liquid transition. `COc1cnc2c(c1)C(=O)c1c-2n(CCCN2CCCC2)c(=O)c2cc([N+](=O)[O-])ccc12` [Compound 8, 7-Aza-5,6-dihydro-6-[3-(4-pyrrolidine-1-yl)propyl]-9-methoxy-3-nitro-5,11-dioxo-11H-indeno[1,2-c]isoquinoline] returned a melting point of 248 to 250 °C. The IC50 at recombinant human TDP2 is 37000 to 111000 nM. In addition, in the data set on MCF-7, the GI50 is less than 10 nM. In addition, the 50% growth inhibitory concentration (GI50) in the data set on UACC-62 stood at 15 nM. For the same compound, the GI50 in data set [1] (setting [2]) came out at 45 nM. In addition, the 50% growth inhibitory concentration (GI50) in the data set with OVCAR-3 turned out to be 59 nM. Further, in the data set on SF-539, the GI50 amounted to 31 nM. In addition, the GI50 with HOP-62 is less than 10 nM. For the same compound, the GI50 in the data set with SN12C is 36 nM. Also, on Tdp1, the IC50 lay within 1000 to 12000 nM. Besides, on Top1, the “Enzyme Inhibitory Activity Top1” value is “++” and the “Top1 inhibitory activity level” value is recorded as “++”.
Turning to `COc1cnc2c(c1)C(=O)c1c-2n(CCCN2CCN(C)CC2)c(=O)c2cc([N+](=O)[O-])ccc12` [Compound 9, 7-Aza-5,6-dihydro-6-[3-(3H-methylpiperazine-1-yl)propyl]-9-methoxy-3-nitro-5,11-dioxo-11H-indeno[1,2-c]isoquinoline], the melting point is 211 to 213 °C. In addition, on recombinant human TDP2, the IC50 was 12000 to 37000 nM. For the same compound, the concentration for 50% growth inhibition (GI50) with MCF-7 is 16 nM. In addition, the GI50 with UACC-62 amounted to 183 nM. Further, the concentration for 50% growth inhibition (GI50) in [1] (setting [2]) was 562 nM. Moreover, the GI50 in the data set with OVCAR-3 was 171 nM. The GI50 in the data set on SF-539 turned out to be 191 nM. Further, the GI50 in the data set on HOP-62 was found to be 81 nM. Further, the GI50 in the data set with SN12C worked out at 214 nM. The IC50 at Tdp1 is 12000 to 37000 nM. Moreover, on Top1, the “Enzyme Inhibitory Activity Top1” value was “++” and the “Top1 inhibitory activity level” value was “++”.
In the case of `COc1cnc2c(c1)C(=O)c1c-2n(CCCN2CCNCC2)c(=O)c2cc([N+](=O)[O-])ccc12` [Compound 10, 7-Aza-5,6-dihydro-9-methoxy-3-nitro-5,11-dioxo-6-[3-(piperazine-1-yl)propyl]-11H-indeno[1,2-c]isoquinoline], the melting point lay in the range of 134 to 135 °C. For the same compound, the IC50 on recombinant human TDP2 was 37000 to 111000 nM. For the same compound, the GI50 in the data set on MCF-7 turned out to be 36 nM. For the same compound, the GI50 with UACC-62 was found to be 175 nM. For the same compound, the concentration for 50% growth inhibition (GI50) in data set [1] (setting [2]) was determined as 316 nM. Besides, in the data set on OVCAR-3, the GI50 was found to be 1190 nM. In the data set on SF-539, the concentration for 50% growth inhibition (GI50) was determined as 355 nM. Further, the GI50 in the data set with HOP-62 is 65 nM. Also, the GI50 with SN12C was 230 nM. Moreover, the IC50 on Tdp1 was in the range of 12000 to 37000 nM. On Top1, the “Enzyme Inhibitory Activity Top1” value is recorded as “++” and the “Top1 inhibitory activity level” value is “++”.
For the compound `CNCCCn1c2c(c3ccc([N+](=O)[O-])cc3c1=O)C(=O)c1cc(OC)cnc1-2` [Compound 11], the melting point was in the range of 259 to 262 °C. Besides, the IC50 at recombinant human TDP2 lay within 37000 to 111000 nM. In addition, the GI50 in the data set on MCF-7 is 1060 nM. In the data set with UACC-62, the GI50 is 20 nM. Besides, the 50% growth inhibitory concentration (GI50) in data set [1] (setting [2]) is 741 nM. The GI50 in data set [1] (read-out: MGM (GI50 mean graph midpoint)) was 714 nM. For the same compound, the concentration for 50% growth inhibition (GI50) in the data set on OVCAR-3 was 174 nM. Further, the 50% growth inhibitory concentration (GI50) in the data set with SF-539 is 51 nM. Further, the GI50 with HOP-62 came to 30 nM. For the same compound, in the data set with SN12C, the GI50 was 46 nM. In addition, the IC50 on Tdp1 was 1000 to 12000 nM. On Top1, the “Enzyme Inhibitory Activity Top1” value is reported as “+++” and the “Top1 inhibitory activity level” value is listed as “+++”.
For the compound `COc1cnc2c(c1)C(=O)c1c-2n(CCCNC2=NCCS2)c(=O)c2cc([N+](=O)[O-])ccc12` [Compound 12, 7-Aza-5,6-dihydro-6-[3-((4,5-dihydrothiazol-2-yl)amino)propyl]-9-methoxy-3-nitro-5,11-dioxo-11H-indeno[1,2-c]isoquinoline], the melting point lay in the range of 175 to 177 °C. Further, the IC50 at recombinant human TDP2 lay within 12000 to 37000 nM. In the data set with MCF-7, the GI50 is less than 10 nM. Further, the concentration for 50% growth inhibition (GI50) in the data set on UACC-62 was less than 10 nM. For the same compound, the GI50 in data set [1] (setting [2]) amounted to 58 nM. The GI50 in the data set with OVCAR-3 was found to be 137 nM. Besides, the GI50 with SF-539 stood at 36 nM. Besides, in the data set with HOP-62, the GI50 was determined as 14 nM. Also, the concentration for 50% growth inhibition (GI50) with SN12C was less than 10 nM. At Tdp1, the IC50 fell in the range of 1000 to 12000 nM. Besides, on Top1, the “Enzyme Inhibitory Activity Top1” value was “++++” and the “Top1 inhibitory activity level” value was “++++”.
With `COc1cnc2c(c1)C(=O)c1c-2n(CCCNCCN2CCOCC2)c(=O)c2cc([N+](=O)[O-])ccc12` [Compound 13, 7-Aza-5,6-dihydro-9-methoxy-6-[3-((2-morpholinoethyl)amino)propyl]-3-nitro-5,11-dioxo-11H-indeno[1,2-c]isoquinoline], the melting point fell in the range of 214 to 216 °C. Also, the IC50 at recombinant human TDP2 was in the range of 37000 to 111000 nM. In the data set with MCF-7, the GI50 is 32 nM. Further, the GI50 in the data set with UACC-62 amounted to 44 nM. For the same compound, the 50% growth inhibitory concentration (GI50) in [1] (setting [2]) came out at 177 nM. Further, the GI50 in the data set on OVCAR-3 was 315 nM. In the data set with SF-539, the 50% growth inhibitory concentration (GI50) was 311 nM. Also, the concentration for 50% growth inhibition (GI50) in the data set on HOP-62 amounted to 150 nM. Also, in the data set on SN12C, the concentration for 50% growth inhibition (GI50) came out at 80 nM. In addition, the IC50 at Tdp1 was 12000 to 37000 nM. Besides, on Top1, the “Enzyme Inhibitory Activity Top1” value is recorded as “+++” and the “Top1 inhibitory activity level” value is “+++”.
`COc1cnc2c(c1)C(=O)c1c-2n(CCCNC(C)C)c(=O)c2cc([N+](=O)[O-])ccc12` [Compound 14, 7-Aza-5,6-dihydro-6-[3-(isopropylamino)propyl]-9-methoxy-3-nitro-5,11-dioxo-11H-indeno[1,2-c]isoquinoline] returned a melting point of 278 to 280 °C. Also, the IC50 on recombinant human TDP2 is 37000 to 111000 nM. The GI50 in the data set on MCF-7 stood at 12 nM. In the data set with UACC-62, the 50% growth inhibitory concentration (GI50) was 19 nM. Also, the concentration for 50% growth inhibition (GI50) in data set [1] (setting [2]) was 58 nM. Moreover, in the data set on OVCAR-3, the GI50 is 82 nM. Further, the GI50 with SF-539 came out at 51 nM. Further, the concentration for 50% growth inhibition (GI50) with HOP-62 is 85 nM. The concentration for 50% growth inhibition (GI50) with SN12C was 39 nM. At Tdp1, the IC50 lay within 12000 to 37000 nM. Moreover, on Top1, the “Enzyme Inhibitory Activity Top1” value is recorded as “++++” and the “Top1 inhibitory activity level” value was “++++”.
In turn, `CCNCCCn1c2c(c3ccc([N+](=O)[O-])cc3c1=O)C(=O)c1cc(OC)cnc1-2` [Compound 15, 7-Aza-6-[3-(ethylamino)propyl]-5,6-dihydro-9-methoxy-3-nitro-5,11-dioxo-11H-indeno[1,2-c]isoquinoline] showed a melting point of 266 to 268 °C. Besides, the IC50 at recombinant human TDP2 lay in the range of 37000 to 111000 nM. Also, in the data set with MCF-7, the GI50 was 19 nM. Also, the GI50 with UACC-62 stood at 27 nM. For the same compound, the GI50 in [1] (setting [2]) was determined as 79 nM. The GI50 with OVCAR-3 is 62 nM. Moreover, the concentration for 50% growth inhibition (GI50) with SF-539 was determined as 70 nM. The 50% growth inhibitory concentration (GI50) with HOP-62 was 107 nM. For the same compound, the concentration for 50% growth inhibition (GI50) in the data set on SN12C stood at 53 nM. In addition, the IC50 on Tdp1 lay in the range of 1000 to 12000 nM. For the same compound, at Top1, the “Enzyme Inhibitory Activity Top1” value is listed as “++++” and the “Top1 inhibitory activity level” value was “++++”.
